pIC50: −log10 of the molar value.
Legend:
[1] = tested on: Serumlipoproteine; assay: Chronic test in male rats: 7 daily oral doses, serum lipoproteins separated by preparative ultracentrifugation; format: in vivo, Ratte; settings: for Vasoprotektiv Index HDL-C LDL-C: HDL-Cholesterin : LDL-Cholesterin, Kontrolle 3,24
From the text: Die Hemmung der hepatischen Cholesterinbiosynthese hat Auswirkungen auf die Verminderung von Serum-Lipiden, wie im chronischen Versuch an der männlichen Ratte nachgewiesen werden konnte (Tabelle 2).
Gruppen männlicher Ratten des Stammes HOE: WISKf (SPF 71) mit einem Ausgangsgewicht von etwa 240 g erhielten täglich morgens die erfindungsgemäßen Verbindungen in Polyethylenglykol 400 per
Schlundsonde, wobei die jeweilige Kontrollgruppe nur das Vehikel erhielt. 24 Stunden nach der letzten (7.) Applikation und nach 24 Stunden Futterentzug wurde Blut entnommen und im gewonnen Serum die Lipoproteine aus dem Pool einer Rattengruppe mittels der präparativen Ultrazentrifugentechnik getrennt. Hierbei wurden folgende Dichtegrenzen für die Trennung von VLDL, LDL und HDL benutzt:
• VLDL = very low density lipoprotein • LDL = low density lipoprotein • HDL = high density lipoprotein
Für die Bestimmung des Cholesterins und der Triglyceride wurden vollenzymatische Methoden nach Boehringer/Mannheim benutzt, für die Bestimmung des Proteins die Methode von Lowry et al. J. Biol. Chem., 193, 265 (1951) herangezogen. […] Daraus resultiert eine Erhöhung des vasoprotektiven Index (HDL-Cholesterin : LDL-Cholesterin) mit einer ca. 8-fach höheren Potency als Clofibrat.

[2] = tested on: HEP-G2-Zellen; assay: Inhibition of cholesterol biosynthesis: incorporation of 14C sodium acetate into cholesterol in HEP-G2 cell monolayers; format: cell-based; settings: Homo sapiens; for inhibition at 0.1 µM: HepG2, Konzentration im Medium 10^-7 M; for inhibition at 0.0025 µM: HepG2, Konzentration im Medium 2,5·10^-9 M
From the text: Hemmung der Cholesterin Biosynthese
Die Hemmung der Cholesterin Biosynthese durch die erfindungsgemäßen Verbindungen wurde in Zellkulturversuchen mit HEP-G2-Zellen über die Wirkung auf den Einbau von ^14C-Natriumacetat in Cholesterin nachgewiesen. Dazu wurden Monolayers von HEP-G2-Zellen in lipoproteinfreiem Nährmedium mit entsprechenden Konzentrationen der erfindungsgemäßen Verbindungen eine Stunde vorinkubiert; nach Zugabe des^14C markierten Präkursors ^14C-Natriumacetat wurde die Inkubation für 3 Stunden fortgesetzt. Danach wurde ein Teil der Zellen alkalisch verseift, nach vorheriger Zugabe eines internen Standards von ^3H-Cholesterin. Die Lipide der verseiften Zellen wurden mit Chloroform-Methanol extrahiert. Dieses Lipidgemisch wurde nach Zusatz von Trägercholesterin präparativ dünnschichtchromatographisch getrennt, die Cholesterinbande nach dem Sichtbarmachen isoliert und die aus dem 14C-Präkursor gebildete Menge '^4C-Cholesterin szintigraphisch bestimmt. In einem aliquoten Teil der Zellen wurde Zellprotein bestimmt, so daß die in der Zeiteinheit pro mg Zellprotein aus 14C-Präkursor gebildete Menge an ^14C-Cholesterin berechnet werden konnte. Zum Vergleich für die Hemmwirkung einer zugesetzten erfindungsgemäßen Verbindung diente die Kontrolle, so daß direkt die Hemmung der Cholesterinbiosynthese bei einer bestimmten molaren Konzentration der erfindungsgemäßen Verbindung im Medium angegeben werden konnte. Zur Beurteilung der Wirkungstärke der erfindungsgemäßen Verbindungen wurde die Hemmwirkung von Lovastatin im selben Versuchsansatz bestimmt. In aliquoten Anteilen der Zellkultur wurde die Intaktheit der Zellkultur und die fehlende Zellschädigung durch Einwirkung der erfindungsgemäßen Verbindung morphologisch (Lichtmikroskop) beurteilt und biochemisch durch Bestimmung des Release von Laktat-Dehydrogenase ins Inkubationsmedium gemessen.
Das Ergebnis dieser Untersuchung ist in Tabelle 2 wiedergegeben. Die Wirkung der erfindungsgemäßen Substanzen als Cholesterin-Biosynthese-Hemmer ist deutlich zu erkennen. In den geprüften Konzentrationen hatten die erfindungsgemäßen Verbindungen im Zeitraum von 4 Stunden keine cytotoxische Wirkung.

[3] = read-out: % Cholesterin-Biosynthese-Hemmung

**Q.** Which results are given for `CCOC(=O)C(C)(C)Oc1ccc(Cl)cc1` [Clofibrat, reference compound]?
**A.** Beeinflussung der Serumlipoproteine im Vergleich zur Kontrollgruppe in % HDL-C ([1]; 100 mg/kg/Tag oral, 7 days): -36%; Beeinflussung der Serumlipoproteine im Vergleich zur Kontrollgruppe in % HDL-Protein ([1]; 100 mg/kg/Tag oral, 7 days): -14%; Beeinflussung der Serumlipoproteine im Vergleich zur Kontrollgruppe in % LDL-C ([1]; 100 mg/kg/Tag oral, 7 days): -47%; Beeinflussung der Serumlipoproteine im Vergleich zur Kontrollgruppe in % LDL-Protein ([1]; 100 mg/kg/Tag oral, 7 days): -13%; Beeinflussung der Serumlipoproteine im Vergleich zur Kontrollgruppe in % VLDL-C ([1]; 100 mg/kg/Tag oral, 7 days): -56%; Vasoprotektiv Index HDL-C LDL-C ([1]; 100 mg/kg/Tag oral, 7 days): 3,87

**Q.** `CC(=O)OC1CC(=O)CC(=O)OC(C)CC2OC12` (centres unmarked) [II.1] was tested. Which inhibition at 0.1 µM [2, 3] did it give?
**A.** Its inhibition at 0.1 µM is 13%.

**Q.** Which “Beeinflussung der Serumlipoproteine im Vergleich zur Kontrollgruppe in % HDL-C” value ([1]; 30 mg/kg/Tag oral, 7 days) does the source give for `CC1CC2OC2C(OC(=O)c2ccccc2)CC(=O)CC(=O)O1` (centres unmarked) [II.3] here?
**A.** The value was “+22%”.

**Q.** And the “Beeinflussung der Serumlipoproteine im Vergleich zur Kontrollgruppe in % LDL-C” value ([1]; 30 mg/kg/Tag oral, 7 days)?
**A.** Its value is -19%.

**Q.** What about the “Beeinflussung der Serumlipoproteine im Vergleich zur Kontrollgruppe in % LDL-Protein” value ([1]; 30 mg/kg/Tag oral, 7 days) of the same compound?
**A.** Its value is -14%.

**Q.** And the “Beeinflussung der Serumlipoproteine im Vergleich zur Kontrollgruppe in % VLDL-C” value ([1]; 30 mg/kg/Tag oral, 7 days)?
**A.** Its value is -21%.

**Q.** What about the “Vasoprotektiv Index HDL-C LDL-C” value ([1]; 30 mg/kg/Tag oral, 7 days) of the same compound?
**A.** The value was 4,88.

**Q.** What about the “Wirkung auf LDL, VLDL und HDL-Fraktion (in words)” value ([1]; 7-tägige orale Applikation, lower dose than Clofibrat) of the same compound?
**A.** Its value is “deutlichen Verminderung von LDL und VLDL, bei Erhöhung der HDL-Fraktion”.

**Q.** What about the “Verträglichkeit (Anwendung der Substanz von den Ratten vertragen)” value ([1]; 7 days oral) of the same compound?
**A.** The value was “anstandslos vertragen”.

**Q.** And the Hepatomegalie ([1]; 7 days oral, in contrast to Clofibrat)?
**A.** Its Hepatomegalie is “keine Hepatomegalie”.

**Q.** And the “Erhöhung des vasoprotektiven Index (HDL-Cholesterin : LDL-Cholesterin): höhere Potency als Clofibrat” value ([1]; relative to Clofibrat, 7 days oral)?
**A.** Its value is “ca. 8 -fach”.

**Q.** Which inhibition at 0.1 µM [2, 3] does the source give for `CC1CC2OC2C(OC(=O)Nc2ccccc2)CC(=O)CC(=O)O1` (centres unmarked) [II.4, 2,4-Dioxo-10-methyl-1-oxa-6-(phenyl-amino-carbonyl-oxy)-7-cyclodecenoxid] here?
**A.** Its inhibition at 0.1 µM is 68%.

**Q.** With `CCC(=O)OC1CC(=O)CC(=O)OC(C)CC2OC12` (centres unmarked) [II.8] as the compound, how does the inhibition at 0.0025 µM [2, 3] read?
**A.** Its inhibition at 0.0025 µM is 51%.

**Q.** What about the inhibition at 0.1 µM [2, 3] of the same compound?
**A.** The inhibition at 0.1 µM was 69%.

**Q.** What does the source list for `CC(C)CC(=O)OC1CC(=O)CC(=O)OC(C)CC2OC12` (centres unmarked) [II.10]?
**A.** inhibition at 0.0025 µM [2, 3]: 48%; inhibition at 0.1 µM [2, 3]: 59%

**Q.** What does the source list for `CCCCC(=O)OC1CC(=O)CC(=O)OC(C)CC2OC12` (centres unmarked) [II.11, 6-Butylcarbonyloxy-2,4-dioxo-10-methyl-1-oxa-7-cyclodecenoxid]?
**A.** inhibition at 0.0025 µM [2, 3]: 57%; inhibition at 0.1 µM [2, 3]: 73%

**Q.** What does the source list for `CCCCCC(=O)OC1CC(=O)CC(=O)OC(C)CC2OC12` (centres unmarked) [II.13]?
**A.** inhibition at 0.01 µM ([2]; HepG2, Konzentration im Medium 10^-8 M, read-out: % Cholesterin-Biosynthese-Hemmung): 44%; inhibition at 0.001 µM ([2]; HepG2, Konzentration im Medium 10^-9 M, read-out: % Cholesterin-Biosynthese-Hemmung): 37%

**Q.** How did the pIC50 ([2]; HepG2, Lovastatin in the same experimental run as the substance of the row, read-out: Vergleichsreihe für Lovastatin im selben Versuchsansatz IC50) turn out when `CC[C@H](C)C(=O)O[C@H]1C[C@@H](C)C=C2C=C[C@H](C)[C@H](CC[C@@H]3C[C@@H](O)CC(=O)O3)[C@H]21` [Lovastatin, reference compound] was run?
**A.** Its pIC50 is 8.00.
